Laboratory results published in patent US20070111265A1, “Ligands for mineralocorticoid receptor (MR) and methods for screening for or designing MR ligands” (Van Andel Research Institute, priority 2005, published 2007).
Numbering of substitutions follows the chain as printed. Several values for one entry are separate records, joined by “and”; a condition that tells them apart may be missing. Equal entries are not always repeated. Entries after “also recorded” stand apart in the source; their conditions may differ. Where two headings read alike, the source gives them in different places.

Experiments:
Experiment in all cases: MMTV luciferase reporter assay in Cos-7 cells
Type in all cases: cell-based
[1] = target: T1, wild type MR (full-length) (Homo sapiens, UniProt P08235)
T1 construct: receptor expression vector (pRS vector) encoding full-length GR and MR respectively (ATCC); host or cells: Cos-7
T1 sequence (P08235 1-984): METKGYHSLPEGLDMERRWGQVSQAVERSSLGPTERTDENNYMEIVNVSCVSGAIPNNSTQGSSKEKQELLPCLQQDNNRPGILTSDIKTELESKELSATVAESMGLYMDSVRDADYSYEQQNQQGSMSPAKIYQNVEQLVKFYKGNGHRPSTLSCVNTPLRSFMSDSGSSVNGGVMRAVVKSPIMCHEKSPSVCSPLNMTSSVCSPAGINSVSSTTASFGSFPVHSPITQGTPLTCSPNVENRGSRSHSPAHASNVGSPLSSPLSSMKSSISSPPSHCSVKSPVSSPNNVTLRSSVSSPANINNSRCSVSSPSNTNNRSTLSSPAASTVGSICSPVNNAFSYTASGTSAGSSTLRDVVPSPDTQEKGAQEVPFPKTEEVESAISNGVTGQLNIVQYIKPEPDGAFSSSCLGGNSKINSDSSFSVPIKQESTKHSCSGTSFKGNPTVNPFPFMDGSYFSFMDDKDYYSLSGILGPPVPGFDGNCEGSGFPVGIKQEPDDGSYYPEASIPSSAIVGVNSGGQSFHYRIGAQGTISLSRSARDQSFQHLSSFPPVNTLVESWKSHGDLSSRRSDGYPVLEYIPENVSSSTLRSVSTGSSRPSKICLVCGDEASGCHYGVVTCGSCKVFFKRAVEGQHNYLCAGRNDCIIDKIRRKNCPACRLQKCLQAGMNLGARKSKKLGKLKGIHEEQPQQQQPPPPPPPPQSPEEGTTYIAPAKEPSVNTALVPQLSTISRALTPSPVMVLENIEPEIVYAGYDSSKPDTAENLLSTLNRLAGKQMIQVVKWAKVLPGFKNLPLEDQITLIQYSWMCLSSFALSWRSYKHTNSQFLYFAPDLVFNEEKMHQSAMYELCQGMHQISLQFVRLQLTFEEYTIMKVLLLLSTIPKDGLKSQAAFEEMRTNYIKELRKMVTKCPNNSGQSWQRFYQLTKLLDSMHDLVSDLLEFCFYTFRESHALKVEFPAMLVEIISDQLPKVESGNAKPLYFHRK
Method: (§1) Cos-7 cells were maintained in DMEM containing 10% fetal bovine serum (FBS) and were transiently transfected using Lipofectamine 2000 (Invitrogen). […] Cells were transfected in Opti-MEM with 400 ng of MMTV-Luc reporter plasmid and 400 ng of receptor expression vector (pRS vector) encoding full-length GR and MR respectively (ATCC). […] Luciferase data were normalized to Renilla activity as an internal control.
(§2) To validate the role of the key MR pocket residues in hormone recognition, the inventors mutated S843 and L848 to the corresponding GR residues (S843P and L848Q) within the context of the full length wild type receptor. […] We also performed reverse mutations in the full length GR receptor (P637S and Q642L) and tested them in the same MMTV reporter.

GR Q642L = target: T2, GR Q642L (Homo sapiens, UniProt P04150, Q642L); conditions: Cos-7, MMTV-Luc
T2 construct: reverse mutations in the full length GR receptor (P637S and Q642L); expressed in transfected cells; host or cells: Cos-7
T2 sequence (P04150 1-777 Q642L): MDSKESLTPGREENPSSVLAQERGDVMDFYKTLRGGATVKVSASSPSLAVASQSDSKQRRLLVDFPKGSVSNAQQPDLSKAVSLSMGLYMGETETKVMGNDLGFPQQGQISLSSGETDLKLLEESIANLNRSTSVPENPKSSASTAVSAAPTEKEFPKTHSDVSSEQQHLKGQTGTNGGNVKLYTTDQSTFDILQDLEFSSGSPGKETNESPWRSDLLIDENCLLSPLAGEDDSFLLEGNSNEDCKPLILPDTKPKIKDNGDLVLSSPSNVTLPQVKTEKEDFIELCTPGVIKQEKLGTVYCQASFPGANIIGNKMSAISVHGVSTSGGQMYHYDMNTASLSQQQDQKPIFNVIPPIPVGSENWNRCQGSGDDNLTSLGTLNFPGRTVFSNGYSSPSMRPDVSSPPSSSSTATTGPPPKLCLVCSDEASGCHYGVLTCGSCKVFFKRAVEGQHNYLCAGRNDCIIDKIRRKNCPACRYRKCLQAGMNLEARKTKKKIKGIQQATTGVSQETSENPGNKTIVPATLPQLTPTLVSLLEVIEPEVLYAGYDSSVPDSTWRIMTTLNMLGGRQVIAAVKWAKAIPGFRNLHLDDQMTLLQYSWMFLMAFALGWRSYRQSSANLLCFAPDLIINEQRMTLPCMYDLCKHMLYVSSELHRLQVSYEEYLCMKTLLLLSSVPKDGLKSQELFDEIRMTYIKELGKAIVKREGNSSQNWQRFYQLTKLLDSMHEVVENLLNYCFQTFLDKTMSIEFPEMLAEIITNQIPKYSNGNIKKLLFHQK
Method: as §1, §2

GR Q642L/P637S = target: T3, GR Q642L/P637S (Homo sapiens, UniProt P04150, P637S/Q642L); conditions: additional mutation of P637S
T3 construct: reverse mutations in the full length GR receptor (P637S and Q642L); expressed in transfected cells; host or cells: Cos-7
T3 sequence (P04150 1-777 P637S/Q642L): T2 sequence (P04150 1-777 Q642L) with P637S
Method: as §1, §2

[2] = Cos-7, MMTV-Luc, read-out: EC50, activation of wild type MR
[3] = summary of FIG. 5 dose-response, read-out: affinity to MR (shown in FIG. 5)

potency of corticosterone relative to cortisol ([1]; wild type MR) | SMILES | EC50 [1, 2] | EC50 [1, 3] [pM] | activation of GR Q642L (GR Q642L) | activation of GR Q642L/P637S (GR Q642L/P637S)
roughly 10 fold | C[C@]12C[C@H](O)[C@H]3[C@@H](CCC4=CC(=O)CC[C@@]43C)[C@@H]1CC[C@@H]2C(=O)CO [corticosterone] | 80 pM and < 100 pM | 100 to 1000 | remained intact | severely affects activation
– | C[C@]12CCC(=O)C=C1CC[C@@H]1[C@@H]2[C@@H](O)C[C@@]2(C)[C@H]1CC[C@]2(O)C(=O)CO [cortisol] | 600 pM | 100 to 1000 | completely abolished activation; also recorded: inability of cortisol to activate | severely affects activation
